In the first assay the target is human A2A receptor (Homo sapiens (Human), UniProt P29274). The experiment in a line: A2A competition binding assay using Scintillation Proximity technology. The note with it: 0.25 μg of membranes from HEK293 cells expressing the human A2a receptor per well; 0.5 nM tritiated radioligand; Cheng-Prusoff. Here is the method:
Binding affinities of compounds of the invention for the human A2A receptor were determined in a competition binding assay using Scintillation Proximity technology. Thus, 1^μg (^ denotes 1 μg of membrane/well), or preferably 0.25 μg of membranes from HEK293 cells expressing the human A2a receptor were incubated with a compound of the invention at concentrations ranging from 3000 nM to 0.15 nM in a reaction mixture containing also 0.5 nM of a tritiated form of 5-amino-7-[2-phenethyl]-2-(furan-2-yl)-7H-pyrazolo[4,3-e][1,2,4]triazolo[1,5-c]pyrimidine (the tritiated compound) and 25 μg of wheat germ agglutin-coated yttrium silicate SPA beads for one hour at room temperature with agitation. The beads were then allowed to settle to the bottom of the wells for 1 hr, after which the membrane-associated radioactivity was determined by scintillation counting in a TopCount microplate reader. Ki values were determined using the Cheng-Prusoff equation.
HEK293 cells expressing the human, rat, dog or monkey adenosine 2a receptor (Purchased from Perkin-Elmer # RBHA2AM400UA).
The Tritiated compound was prepared in-house by MRL Radiochemistry according to published methods.
Wheat germ agglutinin-coated yttrium silicate SPA beads (GE Healthcare #RPNQ0023). Dilute to 25 mg/mL in assay buffer.
Assay Buffer was prepared in house: Dulbecco's calcium and magnesium free phosphate buffered saline+10 mM MgCl2
Adenosine deaminase from calf intestine, 10 mg/2 mL (Roche #10 102 105 001).
A2A antagonist standard (9-chloro-1-(2-furanyl)-[1,2,4]triazolo[1,5-c]quinazolin-5-amine from Tocris Bioscience)
Make eight 1:3 serial dilutions in 100% DMSO from a 3 mM compound stock
Transfer 50 nL of compound into a 384-well OptiPlate (Perkin Elmer).
Typically, final concentrations of compound used in the assay ranged from 3000 nM to 0.152 nM.
Dilute a solution of the Tritiated compound to 1.25 nM in assay buffer. This a 2.5× solution. The final concentration in the assay is 0.5 nM. Calculate the concentration by counting two 5 μL aliquots.
Use *1 ug or preferrably 0.25 ug of membrane/well. Dilute membranes to 9.7 μg/ml in assay buffer. Treat with 20 ug/ml adenosine deaminase (ADA) for 15 minutes at room temperature to degrade endogenous adenosine.
Use 25 μg/well wheat germ agglutinin-coated yttrium silicate SPA beads.
Mix ADA-treated membranes and SPA beads together for 30 min prior to assay.
To the Perkin-Elmer Optiplate-384 containing the compound titration add 20 μL of 2.5× solution of the Tritiated compound and 30 μL of the membrane-bead mixture. Incubate for one hour at room temperature with agitation.
Include total binding (assay buffer+1% DMSO) and non-specific binding (CGS15943, 1 μM) wells.
Allow the beads to settle for one hour.
A curve fitting program (i.e., Prism, Activity Base, Chemcart) is used to determine the EC50. The Ki value is calculated using the Cheng-Prusoff equation. Ki=EC50/(1+(radioligand concentration/Kd)) Counting and Calculations
Counting and calculations were performed as described within the “A2A Activity Binding of Compounds of the Invention” section. Using the foregoing methods, the following results were obtained using compounds of the invention described herein. Each example compound tested is reported in the following format: Example number: A2A Ki (nM) selectivity.
(In general: In a scintillation proximity assay essentially only radioactivity close to the scintillant gives light.)
Chain of human A2A receptor (P29274 whole entry): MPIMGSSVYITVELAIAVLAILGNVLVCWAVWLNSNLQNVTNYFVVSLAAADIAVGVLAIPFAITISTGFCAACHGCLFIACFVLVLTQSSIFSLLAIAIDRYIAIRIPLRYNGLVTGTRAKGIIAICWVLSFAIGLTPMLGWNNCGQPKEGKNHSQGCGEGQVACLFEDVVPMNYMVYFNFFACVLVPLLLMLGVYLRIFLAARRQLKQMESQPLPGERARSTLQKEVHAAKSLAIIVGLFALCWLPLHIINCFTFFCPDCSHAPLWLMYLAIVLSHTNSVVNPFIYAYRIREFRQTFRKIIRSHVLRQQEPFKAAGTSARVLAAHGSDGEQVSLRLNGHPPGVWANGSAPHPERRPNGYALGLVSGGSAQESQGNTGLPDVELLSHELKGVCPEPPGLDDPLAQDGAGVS
Usually Ki stands for the equilibrium dissociation constant of an inhibitor or competing ligand from its target. High values mean a looser hold on the target, low ones a stronger hold on the target. Turning to `COc1cccc2c1nc(N)n1nc(C3CC(F)(F)CCO3)nc21` (single isomer, unassigned) [Example 55B, 2-(4,4-difluorotetrahydro-2H-pyran-2-yl)-7-methoxy-[1,2,4]triazolo[1,5-c]quinazolin-5-amine], the Ki stood at 2 nM.

For `Nc1nc2ccccc2c2nc([C@@H]3CCCN(CC(F)F)C3)nn12` [Example 28, (R)-2-(1-(2,2-difluoroethyl)piperidin-3-yl)-[1,2,4]triazolo[1,5-c]quinazolin-5-amine], the Ki was 11 nM. Same read-out and setting: with `COc1cccc2c1nc(N)n1nc(C3CCCCN(CC(F)(F)F)C3)nc21` (single isomer, unassigned) [Example 32B, 7-methoxy-2-(1-(2,22-trifluoroethyl)azepan-3-yl)-[1,2,4]triazolo[1,5-c]quinazolin-5-amine] the figure was 5.9 nM. The same measure, in the same setting: with `COc1cccc2c1nc(N)n1nc(C3CCCC(N)C3)nc21` (single isomer, unassigned) [Example 30D, 2-(3-aminocyclohexyl)-7-methoxy-[1,2,4]triazolo[1,5-c]quinazolin-5-amine] the figure was 660 nM; with `COc1cccc2c1nc(N)n1nc(C3CCCC(CCC(F)(F)F)C3)nc21` (single isomer, unassigned) [Example 29A, 7-methoxy-2-(3-(3,3,3-trifluoropropyl)cyclohexyl)-[1,2,4]triazolo[1,5-c]quinazolin-5-amine], 16 nM.

The compound `COc1cccc2c1nc(N)n1nc([C@@H]3CCCN(CCC4CC4)C3)nc21` [Example 14, (R)-2-(1-(2-cyclopropylethyl)piperidin-3-yl)-7-methoxy-[1,2,4]triazol[1,5-c]quinazolin-5-amine] registered a Ki of 6.9 nM. Compound `CCC(C)(C)N1CCC[C@@H](c2nc3c4cccc(OC)c4nc(N)n3n2)C1` [Example 31, (R)-7-methoxy-2-(1-(tert-pentyl)piperidin-3-yl)-[1,2,4]triazolo[1,5-c]quinazolin-5-amine] displayed a Ki of 33 nM. Still for that read-out and setting: with `COc1cccc2c1nc(N)n1nc(C3CC4CCC3N(CC(F)(F)F)C4)nc21` (single isomer, unassigned) [Example 35D, 7-methoxy-2-(2-(2,2,2-trifluoroethyl)-2-azabicyclo[2.2.2]octan-6-yl)-[1,2,4]triazolo[1,5-c]quinazolin-5-amine] the figure was 9.9 nM; with `COc1cccc2c1nc(N)n1nc([C@@H]3CCCN(CC(F)(F)F)C3)nc21` [Example 23, (R)-7-methoxy-2-(1-(2,2,2-trifluoroethyl)piperidin-3-yl)-[1,2,4]triazolo[1,5-c]quinazolin-5-amine], 0.8 nM.

In turn, `COc1cccc2c1nc(N)n1nc(C3CCCC(CCC(F)(F)F)C3)nc21` (single isomer, unassigned) [Example 29C, 7-methoxy-2-(3-(3,3,3-trifluoropropyl)cyclohexyl)-[1,2,4]triazolo[1,5-c]quinazolin-5-amine] came in with an inhibitory constant (Ki) of 0.4 nM. Against the preceding compound, the Ki is about 2-fold lower.

Compound `COc1cccc2c1nc(N)n1nc(C3CCC(F)(F)CN3)nc21` (single isomer, unassigned) [Example 58B, 2-(5,5-difluoropiperidin-2-yl)-7-methoxy-[1,2,4]triazolo[1,5-c]quinazolin-5-amine] came in with a Ki of 0.3 nM.

Compound `COc1cccc2c1nc(N)n1nc(C3CC4CCC3N(CC(F)(F)F)C4)nc21` (single isomer, unassigned) [Example 35B, 7-methoxy-2-(2-(2,2,2-trifluoroethyl)-2-azabicyclo[2.2.2]octan-6-yl)-[1,2,4]triazolo[1,5-c]quinazolin-5-amine] displayed a Ki of 54 nM. Regarding `COc1cccc2c1nc(N)n1nc([C@@H]3CCCN(CC(C(F)(F)F)C(F)(F)F)C3)nc21` [Example 2, (R)-7-methoxy-2-(1-(3,3,3-trifluoro-2-(trifluoromethyl)propyl)piperidin-3-yl)-[1,2,4]triazolo[1,5-c]quinazolin-5-amine], affinity was put at a Ki of 0.3 nM.

Still in this assay, the particulars now being: values marked ^: 1 μg of membrane/well (HEK293 cells expressing the human A2a receptor); 0.5 nM tritiated radioligand; Cheng-Prusoff.
`COc1cccc2c1nc(N)n1nc([C@@H]3CCCN(C(=O)c4ccccc4)C3)nc21` [Example 37, (R)-(3-(5-amino-7-methoxy-[1,2,4]triazolo[1,5-c]quinazolin-2-yl)piperidin-1-yl)(phenyl)methanone] registered a Ki of 1.3 nM. For `COc1cccc2c1nc(N)n1nc([C@@H]3CCCN(c4nncs4)C3)nc21` [Example 20, (R)-2-(1-(1,3,4-thiadiazol-2-yl)piperidin-3-yl)-7-methoxy-[1,2,4]triazolo[1,5-c]quinazolin-5-amine], the Ki is 1.9 nM. The compound `CCN1CCC[C@@H](c2nc3c4cccc(OC)c4nc(N)n3n2)C1` [Example 5, (R)-2-(1-ethylpiperidin-3-yl)-7-methoxy-[1,2,4]triazolo[1,5-c]quinazolin-5-amine] returned an inhibition constant (Ki) of 34 nM. The same measure, in the same setting: next, `COc1cccc2c1nc(N)n1nc([C@@H]3CCCN(c4ncns4)C3)nc21` [Example 21, (R)-2-(1-(1,2,4-thiadiazol-5-yl)piperidin-3-yl)-7-methoxy-[1,2,4]triazolo[1,5-c]quinazolin-5-amine]: 3.2 nM; `COc1cccc2c1nc(N)n1nc([C@@H]3CCCN(c4ncc(C)s4)C3)nc21` [Example 22, (R)-7-methoxy-2-(1-(5-methylthiazol-2-yl)piperidin-3-yl)-[1,2,4]triazolo[1,5-c]quinazolin-5-amine]: 0.8 nM. `CCCCN1CCC[C@@H](c2nc3c4cccc(OC)c4nc(N)n3n2)C1` [Example 7, (R)-2-(1-butylpiperidin-3-yl)-7-methoxy-[1,2,4]triazolo[1,5-c]quinazolin-5-amine] registered a Ki of 29 nM. In the case of `C#CC(C)(C)N1CCC[C@@H](c2nc3c4cccc(OC)c4nc(N)n3n2)C1` [Example 9, (R)-7-methoxy-2-(1-(2-methylbut-3-yn-2-yl)piperidin-3-yl)-[1,2,4]triazolo[1,5-c]quinazolin-5-amine], the affinity corresponds to a Ki of 20 nM.
